Entries after “also recorded” stand apart in the source; their conditions may differ.
Legend:
α5β1 integrin [1] = conditions: single IP dose 24 hours after MCAO; Wu et al.; cited from earlier work
GFAP = assay: BCAS mouse model, GFAP (astrocyte marker) staining in striatum; format: in vivo; conditions: 14 days, striatum/white matter, 1 mg/kg i.p. after surgery and days 2, 4, 6, 8, 10, 12, n=4
Description: Representative images within the striatum of GFAP (astrocyte marker) staining in BCAS animals treated with ATN-161 (1 mg/kg; i.p.); treatment immediately after surgery and on post-stenosis days 2, 4, 6, 8, 10, 12. ATN-161: n=4
Quantification of GFAP-positive pixel density. **p≤0.01 compared to sham group.
(§1) Mice (WT, α5KO, DB) are subjected to either sham or BCAS (0.18 mm ID coils) surgery. Euthanasia and brain tissue extraction, and processing for immunohistochemistry or western blot analysis (see below) will occur at early (14 days) or late (30 and 60 days) time points following BCAS. This will allow correlation of α5β1 integrin expression levels with the progression of brain injury over time, whether it could potentially contribute to this pathology early and/or late, and determine whether this is influenced by the diabetic phenotype prior to overt cerebrovascular pathology.

integrin α5β1 [2] = target: T1, integrin α5β1 (Mus musculus, UniProt P09055+P11688); assay: MRI (ADC and T2-weighted) infarct and edema volume after experimental ischemic stroke; format: in vivo
T1 construct: Animals received an IP injection of either Vehicle (sterile PBS) or ATN-161; from tissue; host or cells: living mouse; brain / cerebrovasculature
T1 sequence (P11688 45-898 limits assumed): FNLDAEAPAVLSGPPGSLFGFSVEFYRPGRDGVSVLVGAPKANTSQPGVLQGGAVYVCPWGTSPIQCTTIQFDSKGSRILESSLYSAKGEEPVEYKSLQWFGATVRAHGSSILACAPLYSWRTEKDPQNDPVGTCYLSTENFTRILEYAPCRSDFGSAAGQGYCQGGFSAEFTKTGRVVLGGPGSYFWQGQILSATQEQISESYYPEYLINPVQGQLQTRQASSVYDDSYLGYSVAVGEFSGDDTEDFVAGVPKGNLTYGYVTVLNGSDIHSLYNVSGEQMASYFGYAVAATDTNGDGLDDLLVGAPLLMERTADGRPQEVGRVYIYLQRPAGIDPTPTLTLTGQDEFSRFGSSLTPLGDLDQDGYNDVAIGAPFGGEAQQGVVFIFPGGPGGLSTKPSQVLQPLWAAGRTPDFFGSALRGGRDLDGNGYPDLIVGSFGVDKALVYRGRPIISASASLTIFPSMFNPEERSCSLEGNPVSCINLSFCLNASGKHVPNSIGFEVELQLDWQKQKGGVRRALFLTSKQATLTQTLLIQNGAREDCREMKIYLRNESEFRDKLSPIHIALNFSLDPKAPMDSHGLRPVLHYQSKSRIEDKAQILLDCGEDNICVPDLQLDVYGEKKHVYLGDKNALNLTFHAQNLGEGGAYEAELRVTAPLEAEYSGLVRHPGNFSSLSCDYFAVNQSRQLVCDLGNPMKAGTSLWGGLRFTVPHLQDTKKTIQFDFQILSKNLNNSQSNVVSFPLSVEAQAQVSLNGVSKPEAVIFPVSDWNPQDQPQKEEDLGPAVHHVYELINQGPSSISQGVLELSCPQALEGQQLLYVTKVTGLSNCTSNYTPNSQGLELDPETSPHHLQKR
T1 sequence (P11688 899-1053 limits assumed): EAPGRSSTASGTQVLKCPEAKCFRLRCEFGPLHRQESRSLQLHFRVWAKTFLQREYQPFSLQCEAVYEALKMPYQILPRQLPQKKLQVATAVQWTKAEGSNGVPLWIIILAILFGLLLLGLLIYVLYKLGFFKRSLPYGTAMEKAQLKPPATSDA
T1 sequence (P09055 21-798): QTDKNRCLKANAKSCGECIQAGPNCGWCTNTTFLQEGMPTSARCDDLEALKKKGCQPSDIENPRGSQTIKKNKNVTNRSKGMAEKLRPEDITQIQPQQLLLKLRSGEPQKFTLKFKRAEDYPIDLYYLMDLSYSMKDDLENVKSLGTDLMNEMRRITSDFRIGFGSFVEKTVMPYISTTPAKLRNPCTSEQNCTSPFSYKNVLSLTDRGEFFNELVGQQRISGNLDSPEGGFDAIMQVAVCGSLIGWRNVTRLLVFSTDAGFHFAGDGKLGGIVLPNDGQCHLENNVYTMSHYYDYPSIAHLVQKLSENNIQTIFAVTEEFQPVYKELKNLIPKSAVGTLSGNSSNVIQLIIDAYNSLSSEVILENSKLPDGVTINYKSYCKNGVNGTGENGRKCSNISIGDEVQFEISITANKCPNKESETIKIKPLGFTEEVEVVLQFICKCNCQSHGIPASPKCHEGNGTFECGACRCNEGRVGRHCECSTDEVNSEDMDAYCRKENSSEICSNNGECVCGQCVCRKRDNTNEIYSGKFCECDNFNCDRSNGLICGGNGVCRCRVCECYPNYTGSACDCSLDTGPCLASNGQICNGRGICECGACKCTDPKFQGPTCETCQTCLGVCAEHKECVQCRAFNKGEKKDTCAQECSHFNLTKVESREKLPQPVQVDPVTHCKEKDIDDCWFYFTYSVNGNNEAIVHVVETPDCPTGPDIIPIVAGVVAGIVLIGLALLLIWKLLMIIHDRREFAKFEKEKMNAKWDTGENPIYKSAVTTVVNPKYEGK
Description: (§2) Mice underwent transient tandem ipsilateral common carotid artery/middle cerebral artery (CCA/MCA) occlusion for 60 minutes as previously published, followed by reperfusion for 1-3 days. Briefly, a small burr hole is created directly over the M2 branch of the MCA, and a 0.0005 inch metal filament is placed under the artery on both sides of the burr hole. The CCA was then isolated and occluded using an aneurysm clip. Blood flow was determined with the Laser Doppler Perfusion Monitor (Perimed, Ardmore, Pa., USA). Animals that received less than 80% occlusion rate from baseline (i.e. pre-occlusion) were excluded from analysis. Sham animals underwent the listed procedure without vascular occlusion. All mice were allowed to recover to post-stroke day (PSD)3, during which daily body weights were measured.
Animals received an IP injection of either Vehicle (sterile PBS) or ATN-161 (lmg/kg, Medkoo Biosciences, Morrisville, N.C., USA) immediately after reperfusion, PSD1 and on PSD2. […] Accounting for edema volume, infarct size based on TTC images was analyzed with Image J (NH) software as:
PSD3 animals were anesthetized with isoflurane and placed on a heated bed where body temperature and breathing rate were carefully monitored throughout the scan. […] All images were analyzed with ITK-SNAP (www.itksnap.org) by a blinded, independent neuroradiologist. […]

integrin α5β1 [3] = target: T1, integrin α5β1; assay: Immunohistochemistry of integrin α5β1 (CD49e) in stroked brain; format: in vivo; conditions: 1 mg/kg IP x3; mean±SD, n=7; Vehicle 308484±53485; p=0.0835
Description: (§3) On PSD3, animals were systemically perfused with PBS (Phosphate Buffered Solution, 1×) for 5 minutes. Brains were removed, flash frozen in liquid nitrogen, and stored at −20 C until use. The brains were coronally sectioned by cryostat at 20 μm and mounted (four per slide, 2 mm separating each section) for staining. Negative controls (no primary antibody) were run in tandem with each target to determine thresholding values.
(§4) Sections were fixed in methanol:acetone (1:1), followed by blocking buffer (5% bovine serum albumin (Fisher Scientific) in PBS with 0.1% Triton-X). Sections were incubated in primary antibody overnight at 4 C (anti-rabbit PECAM at 1:100, Fisher Scientific; anti-rat CD49e at 1:250, BD Pharminagen; anti-rat CD45 at 1:200, ThermoFisher Scientific, anti-rabbit Claudin-5 at 1:200, Abcam, anti-rabbit MMP-9 at 1:100, Abcam, and anti-rabbit fibronectin at 1:100, Abcam). Sections were washed and placed in fluorophore-conjugated secondary antibody, followed by NucBlue cell nucleus counterstain (Fisher Scientific) at room temperature (Vector Labs, 1:250), then cover slipped (Vector Labs) and imaged on a Nikon Eclipse Ti and software (Nikon, Melville, N.Y., USA). Image J was used to quantify all Immunofluorescence positive pixels. CD45: One 4× image per all four sections were taken and averaged. […]

α5β1 integrin [4] = target: T2, α5β1 integrin (Mus musculus, UniProt P09055+P11688); assay: BCAS mouse model, y-maze % spontaneous alternation; format: in vivo; conditions: post-stenosis day 14, 1 mg/kg i.p. after surgery and days 2, 4, 6, 8, 10, 12, n=4
T2 construct: Mice (WT, α5KO, DB) are subjected to either sham or BCAS (0.18 mm ID coils) surgery; from tissue; host or cells: living mouse; brain (cortex)
T2 sequence (P11688 45-898 limits assumed): as the sequence (P11688 45-898 limits assumed) above
T2 sequence (P11688 899-1053 limits assumed): as the sequence (P11688 899-1053 limits assumed) above
T2 sequence (P09055 21-798): as the sequence (P09055 21-798) above
Description: On post-stenosis day 14, mice underwent y-maze testing and % spontaneous alternation (working memory) was quantified. BCAS animals were treated with vehicle or ATN-161 (1 mg/kg; i.p.) treatment immediately after surgery and on post-stenosis days 2, 4, 6, 8, 10, 12. […] Sham: n=4; BCAS: n=8; ATN-161: n=4
as §1

α5β1 integrin [5] = target: T2, α5β1 integrin; assay: BCAS mouse model, α5 staining in cortex; format: in vivo; conditions: 14 days, 1 mg/kg i.p. after surgery and every other day to day 12, n=4, preliminary data
Description: Representative images within the cortex of α5 staining in BCAS animals treated with ATN-161 (1 mg/kg; i.p.). ATN-161 n=4
Quantification of α5-positive pixel density. ***p≤0.001 compared to sham group.
as §1

MMP-9 [6] = assay: qPCR of ipsilateral cortex at PSD3, MMP-9; format: in vivo, mouse; conditions: relative to sham; mean±SD, n=7; Sham 1.018±0.1759, Vehicle 6.761±5.321
Description: (§5) On PSD3, brains were removed and sectioned at 2 mm where the ipsilateral cortical tissue and corresponding contralateral cortical tissue were isolated. All sections per animal were combined and homogenized in Trizol (Life Technologies). RNA extraction was performed according to the RNA extraction kit provided by the manufacturer (Life Technologies). RNA was converted to cDNA using a high capacity cDNA reverse transcriptase kit (Applied Bioscience, Grand Island, N.Y., USA). 18S (control; Mm03928990_g1), collagen IV (Mm00483669_m1), IL-1β (Mm00434228_m1), CXCL12 (Mm00445553_m1), and MMP9 (Mm00442991_m1) Taqman genes were analyzed using Real-time PCR (ViiA7, Life Technologies). Data was analyzed as fold change comparing vehicle and ATN-161 treated mice as a % control (sham).

[7] = Physiological measurements (MouseOx) and body weight after reperfusion in stroked mice; format: in vivo, mouse
Description: as §2
Immediately following reperfusion, heart, rate, pulse distension, and body temperature were recorded using MouseOx (Starr Life Science, Holliston, Mass., USA). After 5 minutes, sterile PBS (Vehicle) or ATN-161 was injected via IP (as described below); mice were continually observed for 15 minutes post reperfusion.

IgG = IgG immunohistochemistry (BBB permeability, IgG extravasation) in stroked brain; format: in vivo, mouse; conditions: PSD3; 1 mg/kg IP x3; mean±SD, n=8; Vehicle 70125±53485
Description: as §3
Sections were fixed in 10% phosphate-buffered formalin. After washing, IgG 568 biotinylated antibody (1:500, Thermo-Fisher Scientific) in 1% bovine serum albumin was applied to the tissue for 2 hours. Slides were then cover slipped (Vector Labs) for imaging on a Nikon Eclipse Ti and software (Nikon, Melville, N.Y., USA). Image J was used to isolate and count IgG positive pixels. Three separate 20× images per core region were taken per section and averaged.

Claudin-5 = assay: Immunofluorescence of Claudin-5 in stroked brain; format: in vivo, mouse; conditions: mean±SD, n=6; Vehicle 19830±5538
Description: as §3, §4

[8] = system: angiogenesis and tumor growth; conditions: Donate et al.; cited from earlier work
[9] = Phase I and II clinical oncology studies, 1 mg/kg 10-minute infusions: dry mouth, cellulitis, paresthesia in one out of four patients; cited from earlier work
IL-1β = assay: qPCR of ipsilateral cortex at PSD3, IL-1β; format: in vivo, mouse; conditions: relative to sham; mean±SD, n=7; Sham 1.023±0.1666, Vehicle 27.04±19.96
Description: as §5

MMP-9 [10] = assay: Immunohistochemical staining of MMP-9 in stroked brain; format: in vivo, mouse; conditions: mean±SD, n=7
Description: as §3, §4

integrin α5β1 [11] = target: T1, integrin α5β1; assay: 11-point behavioral Neuroscore after experimental ischemic stroke; format: in vivo; conditions: vs Vehicle
Description: as §2
Animals received an IP injection of either Vehicle (sterile PBS) or ATN-161 (lmg/kg, Medkoo Biosciences, Morrisville, N.C., USA) immediately after reperfusion, PSD1 and on PSD2. Ischemic stroke was confirmed on 2 mm sections stained with […] (TTC; BD, Sparks, M D, USA) or Magnetic Resonance Imaging on PSD3. Accounting for edema volume, infarct size based on TTC images was analyzed with Image J (NH) software as: […]

collagen IV = assay: qPCR of ipsilateral cortex at PSD3, collagen IV; format: in vivo, mouse; conditions: relative to sham; mean±SD, n=8; Sham 1.018±0.1573, Vehicle 0.3543±0.1013
Description: as §5

CXCL12 = assay: qPCR of ipsilateral cortex at PSD3, CXCL12; format: in vivo, mouse; conditions: relative to sham; mean±SD, n=8; Sham 1.015±0.1964, Vehicle 0.5271±0.1779
Description: as §5

[12] = IP ATN-161 5 min after reperfusion, vs Vehicle

In the case of PHSRN, the “effect after rat transient MCAO” value (α5β1 integrin [1]) is listed as “neuroprotective, proangiogenic and increased neurogenesis”.

In the case of Ac-PHSCN-NH2 [ATN-161], the “inflammation (GFAP-positive pixel density, astrocyte activation) following BCAS” value (GFAP) is reported as “decreases inflammation compared to controls”, the “Infarct volume analysis of T2 weighted MRI scan following MCAo” value (integrin α5β1 [2]; 1 mg/kg, PSD 3, n=8 vs Vehicle n=7, p≤0.05) is reported as “reduces infarct volume; also recorded: decreased infarct volumes” and the “ADC analysis for infarct volume” value (integrin α5β1 [2]; PSD3, 1 mg/kg IP after reperfusion, PSD1, PSD2, absent edema volume, mean±SD, n=8, Vehicle 17.9±4.677) is reported as 12.24±3.758. The “Integrin α5β1 analysis at PSD3 in peri-infarct” value (integrin α5β1 [3]) was 162166±23348 positive pixels, the “cognitive outcome, y-maze % spontaneous alternation (working memory)” value (α5β1 integrin [4]) was “improves cognitive outcome; also recorded: A positive trend is observed” and the “α5 expression (α5-positive pixel density) in cortex following BCAS” value (α5β1 integrin [5]) was “decreases α5β1 integrin expression compared to controls; also recorded: decreases α5 expression compared to controls”. The “qPCR MMP-9, ipsilateral cortex at PSD3” value (MMP-9 [6]) was 2.757±2.401 fold change, the “percent change of body temperature following reperfusion” value [7, 12] was “did not show any differences” and the “percent change of heart rate (bpm) following reperfusion” value [7, 12] was “did not show any differences”. The “percent change of pulse distension following reperfusion” value [7, 12] was “did not show any differences”, the “percent change of body weight following ischemic stroke” value ([7]; IP ATN-161, vs Vehicle) was “did not show any differences” and the “IgG positive pixel analysis in the core” value (IgG) was 16753±23348 positive pixels. For the same substance, the “Claudin-5 positive pixels in the core at PSD3” value (Claudin-5) was 44220±19878 positive pixels, the “doses producing the most significant reduction in activity (angiogenesis and tumor growth)” value [8] was 1 to 5 mg/kg and the “safety and tolerability in clinical trials” value [9] was “safe and well-tolerated; also recorded: limited side effects”. For the same substance, the “qPCR IL-1β, ipsilateral cortex at PSD3” value (IL-1β) was 11.89±9.235 fold change, the “MMP-9 positive pixels at PSD3 in the peri-infarct” value (MMP-9 [10]; Vehicle 189516±170441, p=0.0450) was 42227±180171 positive pixels and the “MMP-9 positive pixels at PSD3 in the core” value (MMP-9 [10]; Vehicle 443691±220951, p=0.0734) was 232262±68098 positive pixels. The “11-point Neuroscore on PSD1” value (integrin α5β1 [11]) was “no difference”, the “qPCR collagen IV, ipsilateral cortex at PSD3” value (collagen IV) was 0.8563±0.6898 fold change and the “qPCR CXCL12, ipsilateral cortex at PSD3” value (CXCL12) was 0.8488±0.2846 fold change.

— patent publication US20200179479A1, “INHIBITION OF ALPHA5BETA1 INTEGRIN WITH ATN-161 AS A NOVEL THERAPY FOR VASCULAR DEMENTIA” (University of Kentucky Research Foundation, priority 2018, published 2020)
